Results as given in US12428428B2, “Tricyclic tetrahydroisoquinoline derivative, preparation method therefor and application thereof in medicine” (JIANGSU HENGRUI MEDICINE CO., LTD., priority 2020, dated 2025).

Experiments:
Type in all cases: cell-based
ER (estrogen receptor) = ER (estrogen receptor) (Homo sapiens (Human), UniProt P03372); assay: Inhibition of binding of E to ER (MCF-7/ERE-luciferase reporter cells); settings: MCF-7/ERE-luciferase cells, 0.1 nM estradiol, 24 h
Method: The compounds of the present disclosure can inhibit the binding of E (estrogen) to ER (estrogen receptor), thereby blocking the binding of the complex of E and ER to ERE (estrogen response element), and consequently the expression of downstream luciferase proteins. The inhibitory effects of the compounds of the present disclosure on the binding of E to ER was tested by using the following method.
An ERE was cloned upstream of the luciferase gene, and MCF-7/ERE-luciferase monoclonal cells were selected by transfection of MCF-7 (TCHu74, National Collection of Authenticated Cell Cultures). The MCF-7/ERE-luciferase cells were seeded into a 96-well plate with an MEM (hyclone, SH30024.01B) medium containing 10% charcoal stripped FBS (Moregate, FBSF), 1% sodium pyruvate (sigma, S8636), 1% non-essential amino acids (sigma, M7145) and 500 μg/mL G418 at a density of 30,000 cells/well and cultured at 37° C. with 5% CO2. 20 mM stock solutions of the drugs are prepared, serially diluted 10-fold with 100% DMSO, and then diluted 20-fold with the medium. After the cells were cultured for 24 h, the medium was removed. 0.1 nM estradiol (sigma, E2758) and 10 μL of a medium-diluted drug were added to each well, and DMSO was added to the control group. The mixtures were well mixed by gentle shaking. The cells were cultured in an incubator at 37° C. with 5% CO2 for 24 h, and then the cell culture liquid was removed, followed by the addition of 50 μL of a luciferase substrate (Promega, E6110) to each well. The plate was let stand at room temperature in the dark for 10-15 min, and the chemiluminescence signal values were determined.
The inhibitory effects of the compounds of the present disclosure on the binding of E to ER were tested through the above experiment. The chemiluminescence signal value was plotted against the compound concentration (in log form) using Graphpad Prism, and the IC50 values of the compounds were obtained.

MCF-7 cells = assay: Inhibition of proliferation of MCF-7 cells (ATP method, Cell Titer-Glo); settings: for IC50: Homo sapiens, MCF7, MCF-7 cells, 72 h; for inhibitory effects on the proliferation of MCF-7 cells (in words): conclusion
Method: This experiment was intended to test the inhibitory effects of the compounds disclosed herein on the proliferation of MCF-7 Cells by using the ATP method, and to evaluate the in vitro activity of the compounds according to the IC50 values.
MCF-7 cells (TCHu74, National Collection of Authenticated Cell Cultures) were seeded into a 96-well plate with an MEM (hyclone, SH30024.01B) medium containing 10% FBS (Gibco, 10099-141), 1% sodium pyruvate (sigma, 58636) and 1% non-essential amino acid (sigma, M7145) at a density of 4,000 cells/well and cultured at 37° C. with 5% CO2. 20 mM stock solutions of the compounds are prepared, serially diluted with 100% DMSO to a final concentration of 1000×, and then diluted 20-fold with a medium containing 2% FBS. After the cells were cultured for 24 h, the medium was removed. 90 μL of the medium containing 2% FBS and 10 μL of a drug were added to each well, and 10 μL of DMSO was added to the control group. The mixtures were well mixed by gentle shaking. The blank group contained only 100 μL of the medium containing 2% FBS. The cells were cultured in an incubator at 37° C. with 5% CO2 for 72 h, and then 50 μL of mixed Cell Titer-Glo (Promega, G7571) was added to each well. The mixtures were well mixed by shaking and let stand at room temperature for 10 min, and the chemiluminescence signal values were determined.
The chemiluminescence signal value was plotted against the compound concentration (in log form) using Graphpad Prism, and the IC50 values of the compounds were obtained.

ERα = ERα (Homo sapiens (Human), UniProt P03372); assay: Degradation of ERα in MCF-7 cells (ELISA); settings: for DC50: MCF-7 cells, 16 to 18 h, read-out: EC50 (nM), degradation of ERα; for degradation of ERα (in words): conclusion
Method: ERα-positive breast cancer cell line MCF-7 cells were cultured in a DMEM/F12 medium (HyClone, SH30023.01) containing 10% fetal bovine serum (Corning, 35-010-CV). […] The following day the compounds were serially diluted with DMSO and further diluted with the phenol red-free DMEM/F12 medium containing 5% charcoal-stripped fetal bovine serum. 20 μL of a diluted compound was added to each well of the 48-well plate at final concentrations of 3000, 300, 30, 3, 0.3, 0.03 and 0.003 nM. The 48-well plate was placed in the incubator for 16 to 18 h. A 96-well plate was coated with the capture antibody from the human ERα/NR3A1 total protein assay kit (R&D, DYC5715-5). […] The plate was placed in an incubator at 26° C. overnight. On day 3, the antibody-coated 96-well plate was washed once with PBS, and 200 μL of PBS containing 1% BSA was added to each well. The plate was incubated in an incubator at 37° C. for 1.5 h to be blocked. The cell culture medium supernatant was discarded. The cells were washed once with PBS, and 60 μL of a cell lysis buffer was added to each well. […] The cells were lysed on ice for 15 min, and 300 μL of PBS containing 1 mM EDTA and 0.5% TritonX-100 was added to each well to dilute the urea to 1 M. The blocking buffer in the blocked 96-well plate was discarded, and 100 μL of diluted cell lysis buffer was added to each well. The plate was incubated in an incubator at 37° C. for 2 h and washed 5 times with PBS. A biotinylated assay antibody was diluted to 0.4 μg/mL with PBS containing 1% BSA, and then 100 μL of the assay antibody was added to each well. The plate was incubated in an incubator at 37° C. for 1 h. The plate was then washed five more times, and 100 μL of avidin-HRP diluted 200-fold with PBS containing 1% BSA was added to each well. The plate was incubated at 37° C. for 30 min. The plate was washed five more times, and 100 μL of TMB substrate was added to each well. The plate was incubated at room temperature until blue color appeared, and 100 μL of stop solution was added to each well. OD450 signal values were read using a PHERAstar multi-mode microplate reader. The IC50 values for the inhibitory activity of the compounds were calculated using Graphpad Prism software.

Sequence of ERα (P03372 whole entry): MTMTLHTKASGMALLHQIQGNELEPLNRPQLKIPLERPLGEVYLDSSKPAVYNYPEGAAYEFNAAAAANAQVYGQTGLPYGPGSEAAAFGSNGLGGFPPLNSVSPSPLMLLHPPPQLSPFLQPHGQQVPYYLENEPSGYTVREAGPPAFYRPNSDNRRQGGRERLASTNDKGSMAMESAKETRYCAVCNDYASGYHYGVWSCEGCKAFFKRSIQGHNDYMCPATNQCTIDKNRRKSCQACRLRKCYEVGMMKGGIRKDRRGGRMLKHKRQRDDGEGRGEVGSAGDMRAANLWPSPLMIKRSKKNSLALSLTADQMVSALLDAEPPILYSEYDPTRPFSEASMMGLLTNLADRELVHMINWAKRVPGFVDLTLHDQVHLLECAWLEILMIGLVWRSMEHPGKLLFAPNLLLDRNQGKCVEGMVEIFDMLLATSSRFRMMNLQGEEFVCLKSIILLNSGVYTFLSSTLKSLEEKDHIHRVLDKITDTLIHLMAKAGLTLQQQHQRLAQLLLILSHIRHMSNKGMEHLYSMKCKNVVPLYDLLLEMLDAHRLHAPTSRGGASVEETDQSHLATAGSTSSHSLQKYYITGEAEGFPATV
Sequence of ER (estrogen receptor) (P03372 whole entry): as above

| IC50 (ER (estrogen receptor)) | IC50 (MCF-7 cells) | DC50 (ERα) | degradation of ERα (in words) (ERα) | SMILES | inhibitory effects on the proliferation of MCF-7 cells (in words) (MCF-7 cells) |
| --- | --- | --- | --- | --- | --- |
| 0.27 nM |  |  |  | C[C@@H]1Cc2cc3c(cc2[C@@H](c2ccc(NC4CN(CCCF)C4)cc2)N1CC(F)(F)F)OCO3 [Example 16, 1-(3-Fluoropropyl)-N-(4-((5R,7R)-7-methyl-6-(2,2,2-trifluoroethyl)-5,6,7,8-tetrahydro-[1,3]dioxolo[4,5-g]isoquinolin-5-yl)phenyl)azetidin-3-amine] |  |
|  | > 10000 nM | > 10000 nM | no activity | C[C@@H]1Cc2ccc3c(c2[C@@H](c2ccc(NC4CN(CCCF)C4)cn2)N1CC(F)(F)CO)C(=O)NC3=O [Example 20, (7R,9S)-8-(2,2-difluoro-3-hydroxypropyl)-9-(5-((1-(3-fluoropropyl)azetidin-3-yl)amino)pyridin-2-yl)-7-methyl-6,7,8,9-tetrahydro-1H-pyrrolo[3,4-h]isoquinoline-1,3(2H)-dione, reference compound] | no activity |
|  | > 10000 nM | > 10000 nM | no activity | C[C@@H]1Cc2ccc3c(=O)[nH][nH]c(=O)c3c2[C@@H](c2ccc(NC3CN(CCCF)C3)cn2)N1CC(F)(F)CO [Example 21, reference compound] | no activity |
